Results reported in patent US20200000798A1, “PROCESS FOR […] ALKALOID FRACTION OF R[…] (HERB.) TRAUB AND USES THEREOF” (UNIVERSIDADE FEDERAL DO RIO GRANDE DO SUL-UFRGS, priority 2013, published 2020).

Columns and labels:
healthy mice = test: Immunosuppression assay in healthy animals (complete blood count); format: in vivo; conditions: 0.5 or 1.5 mg/kg every 12 hours for 3 days, then 3 days without treatment
Experimental: An immunosuppression assay in healthy animals was performed to assess the role of montanine as an immunosuppressive agent. 20 male, healthy mice of 8-12 weeks of age were used for examining the whole blood (complete blood count—parameters of: total of white blood cells (WBC); % lymphocytes (Lin %), lymphocytes/mm3 (Lin mm30; % monocytes (Mon %); monocytes/mm3 (Mon mm3); % granulocytes (Gran %); granulocytes/mm3 (Gran/mm3); total of red blood cells (RBC); hemoglobin (HGB) and total of platelets (PLQ)) of animals, which were divided as follows: healthy animals (with no treatment given) (n=4), animals treated with 0.5 or 1.5 mg/kg de montanine/12-12 hours (n=8/group). Whole blood was collected at day 0 for basal analysis of the blood parameters of the complete blood count in all animals, they were then treated for 3 days with the two doses and on the third day blood was collected again for complete blood count analysis; also, animals were still alive for three more days without any treatment for a new blood collection (FIG. 9).

[1] = system: mBSA-induced arthritis in Balb-C mice; test: Antigen-induced arthritis (AIA) model, mBSA-induced monoarthritis; format: in vivo
Experimental: Antigen-induced arthritis (AIA) is an animal model of arthritis that is broadly described and used in worldwide literature. One of the inducing antigens in this model in Balb-C mice is methylated bovine serum albumin (mBSA), which, after systemic immunization (subcutaneous injection) is injected into the joint.
Briefly, mice were immunized in three steps with mBSA (day-0, day-7 and day-14), the first step comprising […] of mBSA protein in an emulsion of 0.1 mL of complete Freund's adjuvant's (CFA) and 0.1 mL of sterile saline solution (0.9% sodium chloride), the second and third steps were performed with the same protein concentration, the same sterile saline solution concentration and the same adjuvant concentration, but in these steps incomplete Freund's adjuvant (IFA) was used; 3 weeks after the first immunization (day 21) mBSA at a concentration of 30 ug/mL were injected into the femorotibial joint (knee) and the contralateral knee was administered with sterile saline only and serves as the control of the experiment (Grespan et al. 2008). […] Treatment with montanine was given twice daily, one day before intra-articular challenge, at the day of the challenge and at day of death, by intraperitoneal route and diluted in saline. Doses tested were 0.3; 1; 3 mg/kg. One group of animals received the treatment vehicle (saline) for control purposes, said group being designated positive control. The experiment is terminated at day 22 (24 hours after challenge and treatment) when animals were euthanized to collect the joint lavage fluid. Lavage was performed using a PBS-EDTA solution and then the number of leukocytes existing in the joint was counted in a Neubauer chamber at a 1:2 dilution with Turk's solution. Furthermore, pain of the animals was assessed in a digital analgesia-meter (von Frey) prior to intra-articular injection at time 0 (zero), 3, 5 and 24 hours after intra-articular challenge.

lymphocyte migration = conditions: 100 micrograms/mL, vs placebo; cited from earlier work
[2] = system: lymphocytes from draining lymph nodes; test: Lymphocyte viability test (MTT); format: cell-based; conditions: 48 hours
Experimental: A lymphocyte viability test was performed to evaluate the cytotoxicity of montanine using a colorimetric MTT [3-(4,5-dimethylthiazol-2-yl)-2,5-diphenyl tetrazolium bromide] assay, as described by Tomita T. et al. 2006. Animals were euthanized and their draining lymph nodes (popliteal and inguinal) were removed aseptically. A single cell suspension was prepared, grown in triplicate (5×10^5 cells/well in a 96 well plate) and treated with montanine at the dosages (0.01 μM, 0.1 μM, 1 μM, 10 μM and 100 μM) for 48 hours at 37° C. at 5% CO2 in RPMI medium. After incubation, MTT (0.5 mg/ml) was added to each well and the plate was placed in the stove again and after 4 hours the supernatant was removed and 50 μI of dimethyl sulphoxide (DMSO, Sigma) were added. After the plate was shaken to dissolve the MTT formazan crystals, optical density (OD) of each well was measured at 570 nm using a microplate ELISA reader.

[3] = system: lymphocytes from draining lymph nodes; test: Lymphocyte proliferation assay (MTT), LPS or ConA stimulated; format: cell-based, BALB/c mice; conditions: 1 μM, 48 h
Experimental: The in vitro lymphocyte proliferation was performed using the MTT colorimetric assay described by Tomita T et al. 2006. BALB/c mice were euthanized and their draining lymph nodes were removed aseptically. A single cell suspension was prepared, grown in triplicate (5×10^5 cells/well in a 96 well plate) and treated with montanine at the dosages of 1 μM for 48 h at 37° C. at 5% CO2 in RPMI medium containing […] lipopolysaccharide (LPS) or […] of conconavalin A (ConA) or RPMI medium alone as a culture control. After incubation, MTT (0.5 mg/ml) was added to each well and the plate was placed in the stove again and after 4 hours the supernatant was removed and 50 μI of dimethyl sulphoxide (DMSO, Sigma) were added. […] After the plate was shaken to dissolve the formazan crystals, optical density (OD) of each well was measured at 570 nm.
LPS acts primarily on the B cell receptor and the Toll-like receptor 4 (TLR4), molecules that are present on the surface of B lymphocytes, thus acting on these cells. ConA acts on several receptors containing glycoproteins or lipoproteins, stimulating both lymphocytes both but acting preferably on T lymphocytes.

[4] = system: collagen type II-induced arthritis in DBA/1J mice; test: Collagen-induced arthritis (CIA) model with prophylactic treatment; format: in vivo
Experimental: The chronic arthritis model most widely used in the world literature is the model of collagen type II-induced arthritis (CIA). Said model shares many pathological features with the disease, such as type II collagen (CM), the major cartilage protein and one of the potential RA self-antigens. […]
After the boost injection, treatment at dosages of 0.05; 0,25 and 0.5 mg/kg was started and continued for 15 days (twice daily, intraperitoneally) and animals were monitored daily for clinical signs of the disease.
Animals were monitored daily for analyzing the clinical signs of arthritis by means of the severity score as follows: 0—no signs of disease; 1—mild erythema and edema; 2—moderate erythema and edema; 3—severe erythema and edema extending from the knee to the metatarsus; 4—severe erythema and edema with loss of function. […]
(§1) The tibio-tarsal joints of DBA/1 J animals were isolated and immersed in 10% buffered formalin for fixation for 24 hours. […] All the cuts were assessed under a microscope by two blinded observers, and the images captured by digital camera.

[5] = system: collagen type II-induced arthritis in DBA/1J mice; test: Collagen-induced arthritis (CIA) model with therapeutic treatment; format: in vivo
Experimental: CIA induction is performed by following the aforementioned protocol.
After the boost injection, animals were monitored daily for clinical signs of the disease and treatment with montanine at 0.5 and 1.5 mg/kg is started on the day of clinical detection of CIA. Animals given sterile saline, the treatment vehicle, were deemed as the positive control group, i.e. untreated. The drug was administered twice daily for 10 days by the intraperitoneal route.
Animals were monitored daily for analyzing the clinical signs of arthritis by means of the severity score as follows: 0-no signs of disease; 1-mild erythema and edema; 2-moderate erythema and edema; 3-severe erythema and edema extending from the knee to the metatarsus; 4-severe erythema and edema with loss of function. The total score is the average of the scores on the legs from the onset of the disease.
Articular hypernociception was assessed as previously described by Pinto LG et al. 2010. For this model, a polypropylene tip was adapted to the manual force transducer, a force was applied on the subplantar surface of the paw producing tibiotarsal bending motion. The automatic pressure meter recorded the strength of the applied force when the paw is removed. The assay is repeated 3 times sequentially to provide a consistent measurement, the limiar being expressed in grams (g).
as §1, with “hours. Then, tissues were decalcified in 10% trichloroacetic acid (TCA) for approximately 18 hours. These tissues were dehydrated and embedded in paraffin blocks. Six pm-thick cuts were arranged on a microscope slide.” for “hours.”

synovial fibroblasts = test: Synovial fibroblast invasion test (matrigel inserts); format: cell-based; conditions: 1 μM, 24 h, five lines tested, vs DMSO vehicle
Experimental: To evaluate the invasion of synovial fibroblasts into matrigel inserts (collagen matrix) a BD kit (Franklin Lakes, N.J., USA) was used, and the test was performed in accordance with the manufacturer specifications.
When cells reached 70-80% confluence, they were trypsinized with trypsin-EDTA for digestion. Then, 2×10^4 cells were resuspended in 500 μI of free culture medium of fetal calf serum and placed on top of the insert. Montanine at a dose of 1 μM or the same concentration of vehicle (DMSO) was added on top of the insert with the cells. At the lower compartment 750 μI of culture medium with 10% fetal bovine serum was added. The plate was incubated at 37° C. for 24 h in a stove with 5% CO2. After the incubation period, the top of the chamber was cleaned with a swab, stained with crystal violet dye, and the total number of cells that invaded the Matrigel membrane was counted in an optical microscope at 100× magnification. Experiments were performed in duplicate.

[6] = 0.5 mg/kg i.p. twice daily for 10 days

SMILES: CO[C@H]1C=C2[C@H]3C[N@@](Cc4cc5c(cc43)OCO5)[C@H]2C[C@@H]1O [montanine]
- immunosuppression (complete blood count) (healthy mice): does not lead to immunosuppression in any of the tested dosages
- pain (joint hypernociception), onset of decrease ([1]; 3 mg/kg i.p. twice daily): decrease as of 3 hours
- pain (joint hypernociception, von Frey) ([1]; 0.3, 1, 3 mg/kg i.p. twice daily, 0, 3, 5 and 24 hours after intra-articular challenge): reduction in pain at all tested doses
- total leukocyte migration to the femorotibial joint ([1]; 0.3, 1, 3 mg/kg i.p., 24 hours after challenge, compared with saline group): significantly reduced at all three doses
- anti-inflammatory effect on the lymphocyte migration model (lymphocyte migration): unable to generate a different effect than the placebo
- lymphocyte viability ([2]; 0.01 μM, 0.1 μM and 1 μM): did not alter cell viability
- lymphocyte viability ([2]; 10 μM): no significant difference between the cell group and the group treated with the montanine at 10 μM, however, decreased cell viability can be seen
- lymphocyte viability ([2]; 100 μM): decreased cell viability can be seen, which was higher in the 100 μM dose
- highest dose that did not exhibit any cytotoxic effects on the cells ([2]; lymphocytes, MTT): 1 µM
- lymphocyte proliferation stimulated by ConA ([3]; ConA): significantly decreased
- lymphocyte proliferation stimulated by LPS ([3]; LPS): had no effect
- histological parameters of the joint ([4]; 0.5 mg/kg i.p. twice daily for 15 days): improved all the histological parameters of the joint, except for synovial hyperplasia
- arthritis clinical score ([4]; 0.25 and 0.5 mg/kg i.p. twice daily, from day 8 of treatment): reduced clinical score
- arthritis clinical score ([5]; 0.5 mg/kg i.p. twice daily): reduction of the clinical score from the third day of treatment
- histological parameters of the joint [5, 6]: improved all the histological parameters, except for synovial hyperplasia
- pain (articular nociception) [5, 6]: reduced pain
- invasion of synovial fibroblasts (synovial fibroblasts): reduced the invasion of synovial fibroblasts of the five lines tested
